From the OPERA property sets (Mansouri et al. 2018) come the findings set out here.

In general, logP refers to the decadic logarithm of the partition coefficient of the neutral form, usually between octanol and water. A lower logP goes with a more hydrophilic compound. One may read the solubility as the concentration that dissolves in the medium under given conditions. A lower solubility goes with little dissolved substance.

Each structure is given as a SMILES string. In brackets after ≈: the same amount, converted by molar mass. Where a SMILES comes first, the peptide text is derived from it. The star is where a group is joined. NHtBu = CC(C)(C)N*

`CCCCCCOCCOCCO` registered a logP of 1.7.
Same read-out and setting: next, `NS(=O)(=O)c1cc(C2(O)NC(=O)c3ccccc32)ccc1Cl` (stereo unspecified): 0.85; `Cc1cc(OCCNCC2CC(=O)c3ccccc3C2=O)c(C(C)C)cc1O` (stereo unspecified): 4.25.
Molecule `Cc1cn(C2OC(CO)CC2F)c(=O)[nH]c1=O` (stereo unspecified) came in with a logP of -0.44.
`C=C(C)C1CC=C(C)CC1` (stereo unspecified) yielded a logP of 4.57.
With `N#CCCl`, the solubility was found to be 1320 mM (≈ 100000 µg/mL).
`CC(Oc1ccc(Oc2ccc(C(F)(F)F)cn2)cc1)C(=O)O` (stereo unspecified) registered a logP of 3.18.
Same read-out and setting: the result for `COC(=O)C1=C(C)NC(C)=C(C(=O)OCC(C)C)C1c1ccccc1[N+](=O)[O-]` (stereo unspecified) reads 3.26; that for `OCCCNc1ccccc1`, 0.57; that for `c1ccc2cc3cc4c(ccc5ccccc54)cc3cc2c1`, 6.81.
`CCN(CC)CCNC(=O)c1ccc(N)c(Cl)c1` returned a logP of 1.7.
The molecule `CCNC(=S)NCC` came in with a logP of 0.57.
On the same count and under the same terms, the result for `COC(=O)c1ccccc1C(=O)OC` reads 1.6; that for `CC(O)C#N` (stereo unspecified), -0.94; that for `CCN1CC=C(c2ccccc2)CC1`, 3.18.
`CC[N+](CC)(CC)CC.[Cl-]` registered a logP of -3.15.
As to `O=[N+]([O-])c1nc[nH]c1I`, the logP stood at 0.28.
As to `CCC(C)O` (stereo unspecified), the log10 OH rate constant (cm³/molecule/s) is -11.
With `C[C@H](CCC(=O)NCC(=O)O)[C@H]1CC[C@H]2[C@@H]3[C@H](O)C[C@@H]4C[C@H](O)CC[C@]4(C)[C@H]3C[C@H](O)[C@]12C`, the logP stood at 1.65.
The same measure, in the same setting: the result for `N=C(N)NN=Cc1ccc(Br)cc1` reads 1.3; that for `C#CC(C)(C)NC(=O)c1cc(Cl)cc(Cl)c1`, 3.43; that for `COC(=O)c1cc2ccccc2[nH]1`, 2.45.
With `CC1=CCC(C(C)(C)O)CC1` (stereo unspecified), the logP was 2.98.
Regarding `Cc1ccccc1CCN`, the logP turned out to be 1.6.
The same measure, in the same setting: next, `CC(CCC(=O)O)C1CCC2C3C(O)CC4CC(O)CCC4(C)C3CCC12C` (stereo unspecified): 3.
Molecule `Nc1ccc(O)c([N+](=O)[O-])c1` registered a logP of 0.96.
The same measure, in the same setting: next, `CN(C)c1ccc(N=C=S)cc1`: 3.96.
The molecule `ClCC1CO1` (stereo unspecified) came in with a log partition coefficient (logP) of 0.45.
For the molecule `CCCCOCCOCCCC`, the logP came out at 2.48.
`Cc1cccc(C)c1NC(=O)c1cc(S(N)(=O)=O)c(Cl)cc1O` came in with a logP of 2.19.
`CCC/N=C(N)/N=C(\N)Nc1ccc(Cl)cc1` yielded a logP of 2.63.
`CC(=O)OCN1C(=O)C(C)=C(C)C1=O`: the logP turned out to be 0.65.
The molecule `Cc1ccc(C=[N+]([O-])C(C)(C)C)cc1` had a logP of 1.74.
In turn, `Cc1ccc2c(ccc3ccccc32)c1` yielded a logP of 4.86.
For the molecule `O=c1ccc2cc3ccoc3cc2o1`, the logP is 1.67.
Still for that read-out and setting: next, `Nc1ccc2nc(S(N)(=O)=O)sc2c1`: 0.52.
Still for that read-out and setting: the result for `CCCCOC(=O)C(N)Cc1ccc(O)cc1` (stereo unspecified) reads 1.8; that for `COc1ccccc1OCC(O)CO` (stereo unspecified), 1.39; that for `COP(=S)(OC)Oc1c(Cl)cccc1C#N`, 3.58.
For `Cc1nc(N)nc(C(Cl)(Cl)Cl)n1`, the logP is 1.77.
The same measure, in the same setting: the result for `COc1ccc(-c2cc(C#N)c(Cl)nc2C)cc1OC` reads 2.86; that for `O=[N+]([O-])c1ccc2c(c1)Cc1ccccc1-2`, 3.37.
Molecule `C[C@H](CCC(=O)NCC(=O)O)[C@H]1CC[C@H]2[C@@H]3[C@H](O)[C@H](O)[C@@H]4C[C@H](O)CC[C@]4(C)[C@H]3CC[C@]12C` returned a logP of 1.9.
Consider `CNC(=O)Oc1cccc2c1OC(C)(C)C2`, for which the solubility was determined as 1.45 mM (≈ 320 µg/mL).
Turning to `CCCC(CCC)=NNC(=N)N`, the logP stood at 1.73.
Still for that read-out and setting: the result for `C1=C(c2ccccc2)CCNC1` reads 1.99.
On to `CCNc1nc(N)nc(Cl)n1`, for which the logP came to 1.15 and the solubility turned out to be 3.86 mM (≈ 670 µg/mL).
With `Cc1cn([C@H]2CC[C@@H](CO)O2)c(=O)[nH]c1=S`, the logP is 0.44.
With `CC(=O)NC(C)C(=O)NC(CCC(=O)O)C(=O)NC(C)(C)C` (stereo not drawn) (Ac-Ala-Glu-NHtBu; configuration not given here), the logP is -0.67.
`CCCOC(=O)NCCCN(C)C` registered a logP of 1.12.
Same read-out and setting: next, `Cc1ccc(C)c2c(C)cccc12`: 4.9; `CCCCOC(=O)c1ccccc1C(=O)OCc1ccccc1`: 4.73; `CSc1nc2ccccc2s1`: 3.15.
`Cc1cc(Cc2ccc(Cl)c(Cl)c2)c(Cl)cc1Cl` registered a log partition coefficient (logP) of 7.26.
Take `NC(=O)CCCN=C(c1ccc(Cl)cc1)c1cc(F)ccc1O`: the logP was determined as 3.06.
Still for that read-out and setting: next, `Cc1ccc(C=[N+]([O-])c2ccccc2)cc1`: 2.41; `C=CCNc1ncc(-c2ccncc2)cc1C#N`: 2.07; `Cc1ccc(O[Si]23OCCN(CCO2)CCO3)cc1`: 0.08.
`CCCS(=O)c1ccc2[nH]c(NC(=O)OC)nc2c1` (stereo unspecified): the logP is 1.27.
`CN1CCN(CCn2cncc2[N+](=O)[O-])CC1` returned a logP of -0.2.
The molecule `Clc1c(Cl)c(Cl)c2c(oc3c(Cl)c(Cl)c(Cl)c(Cl)c32)c1Cl` returned a logP of 8.6.
The same measure, in the same setting: the result for `CN1CCCC1=O` reads -0.38; that for `COC(=O)C1CCN1CC(O)Cn1ccnc1` (stereo unspecified), -0.29.
Same read-out and setting: the result for `CN1CCN(c2c(F)cc3c(=O)c(C(=O)O)cn(CCF)c3c2F)CC1` reads 0.24.
Take `CN1CC=C(c2cccc(N)c2)CC1`: the logP is 1.47.
